Measurements taken from patent publication US5583000A, “Protease-binding compounds and methods of use” (priority 1993, dated 1996).
Values after ≈ are worked out from the molar mass of the structure shown. Where two headings read alike, the source gives them in different places.

Columns and labels:
[1] = target: HIV-1 protease (Human immunodeficiency virus type 1 group M subtype B, UniProt P03369); experiment: biochemical
[2] = in vitro
[3] = Solubility
[4] = target: T1, HIV-2 protease (Human immunodeficiency virus type 2 subtype A, UniProt P04584); experiment: biochemical; conditions: 1M NaCl
T1 construct: the coding region of the 99-amino acid protease; made in house; host or cells: Saccharomyces cerevisiae strain AB110, plasmid pHIV2PR115
T1 sequence (P04584 514-612 limits assumed): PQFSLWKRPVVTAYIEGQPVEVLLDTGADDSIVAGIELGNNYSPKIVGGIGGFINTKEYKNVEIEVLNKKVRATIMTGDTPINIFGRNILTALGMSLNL
Description: The decapeptide was synthesized by conventional solid-state methods. Reactions were carried out and fractionated by HPLC. Conversion of the decapeptide to the two pentapeptides was quantitated by integration of the peak areas and comparison to product standard curves.
Enzymatic Inhibition. […] Each data point was done in triplicate and initial enzyme rates were fit to the Michaelis-Menten equation using a nonlinear regression program ("Enzfitter" from Biosoft).

[5] = physchem
[6] = HIV-1 Protease IC50 (μM) 1M NaCl, 1M NaCl
[7] = HIV-1 Protease IC50 (μM) 1M NaCl

Structure (SMILES)	IC50 [1, 6] [µM]	CC50 at 6 h [2] [µM]	solubility [3] [µM]	HIV-1 Protease Therapeutic Index (LD50 /IC50) ([1]; LD50/IC50)	IC50 [4] [µM]	HIV-1 Protease Therapeutic Index (LD50 /IC50) [1]	IC50 [1, 7] [µM]	solubility [5] [µM]	CC50 at 4 h [2] [µM]	IC50 ([1]; 1M NaCl) [µM]
OC(CC=CC1(O)CCN(Cc2ccccc2)CC1)c1ccccc1 (stereo not drawn) [UCSF76]	1650	440	> 500	–	–	–	–	–	–	–
C=C(CCCC1(O)CCC(O)(c2ccc(Cl)cc2)CC1)c1ccccc1 (stereo not drawn) [UCSF41, 4-(4'-phenyl-4-pentenyl)-1-(p-chlorophenyl)-1,4-cyclohexanediol]	160	90	> 500	0.6	–	–	–	–	–	–
O=C(c1ccc(N2CCC(O)(c3ccc(Cl)cc3)CC2)cc1)C1(CC#CCO)CC1 [UCSF83]	15	> 250	> 250	–	78	–	–	–	–	–
O=C(CCCC1(O)CCC(O)(c2ccc(Cl)cc2)CC1)c1ccc(F)cc1 (stereo not drawn) [UCSF65, 4-(4'-p-fluorophenyl-4'-butanone)-1-p-chlorophenyl-1,4-cyclohexanediol]	–	250	< 100	–	–	–	–	–	–	–
OC(CC#CC1(O)CCN(Cc2ccccc2)CC1)c1ccccc1 (stereo not drawn) [UCSF72]	750	260	> 500	–	–	–	–	–	–	–
O=C(CCC[N+]1([O-])CCC(O)(c2ccc(Cl)cc2)CC1)c1cccc(-c2ccccc2)c1 (stereo not drawn) [UCSF67]	–	> 25	–	–	10	0.3	80	> 25	–	–
OC1(c2ccc(Cl)cc2)CCN(CCCC2(c3ccc(F)cc3)SCc3ccc(cc3)CS2)CC1 [UCSF22, (1,4-benzenedimethanethioacetal)-4-[4-(p-chlorophenyl)-4-hydroxypiperidinyl]-4'-fluorobutyrophenone]	–	> 500	–	–	54	5(0.5)	100	< 50	–	–
C[C@@H]1SC(CCCN2CCC(O)(c3ccc(Cl)cc3)CC2)(c2ccc(F)cc2)S[C@@H]1C (relative stereo) [UCSF64]	–	25	–	–	29	–	16	< 50	–	–
O=C(CCCN1CCC(O)(c2ccccc2)CC1)c1ccc(F)cc1 [UCSF31, 4-(4-phenyl-4-hydroxypiperidinyl)-4'-fluorobutyrophenone]	–	> 250	–	–	495	> 1.1	230	> 250	–	–
OC1(c2ccc(Cl)cc2)CCN(CCCC(O)(c2ccccc2)c2ccccc2-c2ccccc2)CC1 (stereo not drawn) [UCSF56]	–	–	–	–	11	–	20	< 500	20	–
C#CCC(CCN1CCC(O)(c2ccc(Cl)cc2)CC1)C(=O)c1ccc(F)cc1 (stereo not drawn) [UCSF68]	–	100	–	–	48	–	105	< 500	–	–
C#CCC(CC#C)(CCN1CCC(O)(c2ccc(Cl)cc2)CC1)C(=O)c1ccc(F)cc1 [UCSF69]	–	220	–	–	60	–	50	< 100	–	–
OC1(c2ccccc2)CCN(CCCC2(c3ccccc3)OCCO2)CC1 [UCSF30, (1,2-ethyloxoacetal)-4-(4-phenyl-4-hydroxypiperidinyl)butyrophenone]	–	> 250	–	–	500	1	265	> 250	–	–
C[C@@H]1SC(CCCN2CCC(O)(c3ccc(Cl)cc3)CC2)(c2ccc(F)cc2)S[C@H]1C (relative stereo) [UCSF12, (trans-2,3-butanethioacetal)-4-[4-(p-chlorophenyl)-4-hydroxypiperidinyl]-4'-fluorobutyro-phenone]	–	35	–	–	50	0.5	350	< 250	–	–
CC(CCN1CCC(O)(c2ccc(Cl)cc2)CC1)C(=O)c1ccc(F)cc1 (stereo not drawn) [UCSF50]	–	90	–	–	126	–	100	> 500	–	–
OC1(c2ccc(Cl)cc2)CCN(CCCC2(c3ccc(F)cc3)SCCCCS2)CC1 [UCSF23, (1,4-butanethioacetal)-4-[4-(p-chlorophenyl)-4-hydroxypiperidinyl]-4'-fluorobutyrophenone]	–	25	–	–	71	1.25	20	> 250	–	–
CC(=O)OC1(c2ccc(Cl)cc2)CCN(CCCC(=O)c2ccc(F)cc2)CC1 [UCSF6, 4-[4-(p-chlorophenyl)-4-acetoxypiperidinyl]-4'-fluorobutyrophenone]	–	250	–	0.3	533	–	–	> 250	–	725

Structure (SMILES)	IC50 [1, 6] [µM]	CC50 at 6 h [2] [µM]	solubility [3] [µM]	HIV-1 Protease Therapeutic Index (LD50 /IC50) ([1]; LD50/IC50)	IC50 [4] [µM]	HIV-1 Protease Therapeutic Index (LD50 /IC50) [1]	IC50 [1, 7] [µM]	solubility [5] [µM]	CC50 at 4 h [2] [µM]	IC50 ([1]; 1M NaCl) [µM]
O=C(CCCN1CCC(O)(c2ccc(Cl)cc2)CC1)c1ccccc1 [UCSF62]	–	380	–	–	40	–	100	< 250	–	–
OC1(c2ccc(Cl)cc2)CCN(CCCN(Cc2ccccc2)Cc2ccc(-c3ccccc3)cc2)CC1 [UCSF63]	–	25	–	–	15	–	18	> 500	–	–
OC1(c2ccc(Cl)cc2)CCN(CCCC(O)(c2ccccc2)c2cccc(-c3ccccc3)c2)CC1 (stereo not drawn) [UCSF57, 4-(4-(p-chlorophenyl)-4-hydroxypiperidinyl)-1-phenyl-1-(3'-phenylphenyl)-butan-1-ol]	–	–	–	–	14	–	10	< 500	25	–
OC1(CCCCc2ccccc2)CCC(O)(c2ccc(Cl)cc2)CC1 (stereo not drawn) [UCSF54]	2500	190	> 500	< 0.08	–	–	–	–	–	–
OC1(c2ccc(Cl)cc2)CCN(CCC[Si](c2ccccc2)(c2ccccc2)c2ccccc2)CC1 [UCSF47, (3-[4-(4-chlorophenyl)-4-hydroxypiperidinyl)-1-propyl)triphenylsilane]	–	15	–	–	1.5	0.2	90	> 500	–	–
OCCNN=C(CCCN1CCC(O)(c2ccc(Cl)cc2)CC1)c1ccc(F)cc1 [UCSF14]	–	500	–	–	90	10	50	500 (≈ 217 µg/mL)	–	–
OC1(c2ccc(Cl)cc2)CCN(CCCC2(c3ccc(F)cc3)OCCS2)CC1 (stereo not drawn) [UCSF78]	–	35	–	–	167	–	39	> 500	–	–
OC1(c2ccc(Cl)cc2)CCN(CCN(Cc2ccccc2)Cc2ccccc2)CC1 [UCSF46, 2-[4-(4-chlorophenyl)-4-hydroxypiperidinyl]-(N,N-dibenzyl)ethylamine]	–	20	–	–	34	0.7	30	> 500	–	–
O=C(Cc1ccccc1)N(CCCN1CCC(O)(c2ccc(Cl)cc2)CC1)Cc1ccccc1 [UCSF66]	–	25	–	–	48	0.3	70	< 250	–	–
CC[C@H]1CSC(CCCN2CCC(O)(c3ccc(Cl)cc3)CC2)(c2ccc(F)cc2)O1 (stereo partly drawn) [UCSF80]	–	40	–	–	58	–	33	> 250	–	–
Cc1ccc(C(=O)CCC(c2ccccc2)N2CCC(O)(c3ccc(Cl)cc3)CC2)cc1 (stereo not drawn) [UCSF44, 4-[4-(p-chlorophenyl)-4-hydroxypiperidinyl]-4-phenyl-4'-methylbutyrophenone]	–	200	–	–	43	5.7(0.7)	35	< 25	–	–
COCCN(CCN1CCC(O)(c2ccc(Cl)cc2)CC1)Cc1ccccc1 [UCSF58, 2-[4-(4-chlorophenyl)-4-hydroxypiperidinyl]-N-benzyl-N-(2-methoxyethyl)ethylamine]	–	–	–	–	290	< 0.3	300	> 500	110	–
OC1(c2ccc(Cl)cc2)CCN(CCCN(CCc2ccccc2)Cc2ccccc2)CC1 [UCSF61, 3-[4-(4-chlorophenyl)-4-hydroxypiperidinyl]-N-benzyl-N-(2-phenyl-ethyl)-propylamine]	–	40	–	–	230	0.2-0.4	220	< 500	–	–
O=C(CCC[N+]1([O-])CCC(O)(c2ccc(Cl)cc2)CC1)c1ccc(F)cc1 (stereo not drawn) [UCSF3, 4-[4-(p-chlorophenyl)-4-hydroxy-N-oxopiperidinyl]-4'-fluorobutyrophenone]	–	> 500	–	–	135	> 2.5	100	< 250	–	–
OC1(c2ccc(Cl)cc2)CCN(CCCNCc2ccccc2)CC1 [UCSF55, 3-[4-(4-chlorophenyl)-4-hydroxypiperidinyl]-N-(benzyl)propylamine]	–	–	–	–	> 2500	< 0.02	2500	> 500	60	–
OC1(c2ccc(Cl)cc2)CCN(CCCC2(c3ccc(F)cc3)SCCCS2)CC1 [UCSF10, (1,3-propanethioacetal)-4-[4-(p-chlorophenyl)-4-hydroxypiperidinyl]-4'-fluorobutyrophenone]	–	30	–	–	88	2	15	< 100	–	–
Cc1ccc(C(=O)CC(CN2CCC(O)(c3ccc(Cl)cc3)CC2)c2ccccc2)cc1 (stereo not drawn) [UCSF43, 4-[4-(p-chlorophenyl)-4-hydroxypiperidinyl]-3-phenyl-4'-methylbutyrophenone]	–	350	–	–	27	7(1)	50	> 500	–	–
